Measured values as given in US20260115285A1, “MEDICAMENT FOR TREATMENT AND/OR PREVENTION OF CANCER” (TORAY INDUSTRIES, INC., priority 2022, published 2026).

Tested on: human colon cancer cell line (HCT116)
Assay: Example 4: THP-1-mediated phagocytic activity, anti-CAPRIN-1, anti-CD20 or anti-HER-2 antibody alone or with olaparib
Type: cell-based
Conditions: 1×10^4 HCT116 cocultured 1 hour with 1×10^5 THP-1, antibody final concentration 1 μg/mL (1 μM); for combination HCT116 cultured 2 days with olaparib 20 μM beforehand; N=3
Procedure: The human-derived cancer cell used was a colon cancer cell line HCT116.
Each cancer cell line after the culture was dissociated with TrypLE Express (Thermo), and the cancer cells were stained by the addition of calcein-AM at a final concentration of 0.04 μg/mL and incubation at 37° C. for 10 minutes. […] Further, dead cells were stained with propidium iodide (PI) (final concentration: 0.1 μg/mL), followed by the measurement of fluorescence from the cells by flow cytometry. PI-positive dead cells were excluded from analysis. The human monocytic cells THP-1 recognize an antibody bound onto cancer cells and phagocytize the cancer cells. At that time, if the cancer cells have been stained with calcein-AM, the monocytic cells ingesting the cancer cells by phagocytosis also become positive to calcein-AM. Thus, the phagocytic activity in this evaluation system was calculated as the ratio (%) of APC-positive/calcein-AM-positive cells to the whole calcein-AM-positive population.

In the case of “anti-CD20 antibody: anti-CD20 antibody (“Rituxan”) purchased from Chugai Pharmaceutical Co., Ltd.”, the “phagocytic activity against cancer cells” value is reported as ≤ 7%.
